Experimental data as given in patent publication US10654917B2, “Antibody molecules and peptide delivery systems for use in alzheimer's disease and related disorders” (TECHNOPHAGE, INVESTIGAÇĀO E DESENVOLVIMENTO EM …, priority 2015, dated 2020).
Like-named read-outs stand apart in the source and are kept apart here. Residues, ends and D or L forms follow the SMILES beside them. *: point of attachment. X1 = Cc1nn(CCN(CCN)CCCC(=O)*)c(C)c1CC(=O)O

How the values were obtained:
[1] = Biodistribution of technetium-labelled peptides; format: in vivo, CD1 mice; conditions: iv, total radioactivity
Outline: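 CD1 mice received technetium-labelled peptide (8.5×10^−5 M final labelling concentration, in PBS) by tail-vein iv injection; in a repeat study dose was raised one hundred fold. Organs were dissected, washed, weighed and counted at 5 and 60 min, or 2 and 60 min in the repeat, as % injected activity or per gram tissue.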

[2] = Partition coefficient (log Po/w) of radiopeptides; format: physicochemical
From the text: Table 7 lists each peptide's name, isoelectric point (PI), charge (number of positive residues), calculated mass (in Da), and ion found; as well as the name, calculated mass, and found ion for the corresponding conjugate; and also retention times in HPLC and the partition coefficient (log Po/w). These values allowed the determination of the hydrophilic nature of peptides, where pepH1 and pepH4 were identified as the most hydrophilic peptides.

CC[C@H](C)[C@H](NC(=O)CNC(=O)[C@H](C)NC(=O)CCCN(CCN)CCn1nc(C)c(CC(=O)O)c1C)C(=O)N[C@@H](CC(C)C)C(=O)N[C@@H](CCCCN)C(=O)N[C@@H](CCCNC(=N)N)C(=O)N[C@@H](Cc1c[nH]c2ccccc12)C(=O)O [^99mTc(CO)3-Pz^1-pepH3, metal not drawn] (X1-AGILKRW-OH; C-terminus assumed)
tissue uptake at 2 min ([1]; CD1, blood, 140 ug/mouse, 140 μg/mouse, read-out: injected activity in Blood): 8.6 ± 0.9 %ID/g | tissue uptake at 1 h ([1]; CD1, blood, 140 ug/mouse, 140 μg/mouse, 1 hour, read-out: injected activity in Blood): 0.43 ± 0.04 %ID/g | tissue uptake at 2 min ([1]; CD1, bone, 140 ug/mouse, 140 μg/mouse, read-out: injected activity in Bone): 1.89 ± 0.04 %ID/g | tissue uptake at 1 h ([1]; CD1, bone, 140 ug/mouse, 140 μg/mouse, 1 hour, read-out: injected activity in Bone): 0.19 ± 0.01 %ID/g | tissue uptake at 2 min ([1]; CD1, brain, 140 ug/mouse, 140 μg/mouse, read-out: injected activity in Brain): 0.31 ± 0.07 %ID/g | tissue uptake at 1 h ([1]; CD1, brain, 140 ug/mouse, 140 μg/mouse, 1 hour, read-out: injected activity in Brain): 0.03 ± 0.01 %ID/g | tissue uptake at 2 min ([1]; CD1, heart, 140 ug/mouse, 140 μg/mouse, read-out: injected activity in Heart): 2.2 ± 0.3 %ID/g | tissue uptake at 1 h ([1]; CD1, heart, 140 ug/mouse, 140 μg/mouse, 1 hour, read-out: injected activity in Heart): 0.14 ± 0.01 %ID/g | dose excreted at 1 h ([1]; CD1, in vivo, 140 ug/mouse, 140 μg/mouse, 1 hour, read-out: Excretion): 36 ± 11.2% | tissue uptake at 2 min ([1]; CD1, intestine, 140 ug/mouse, 140 μg/mouse, read-out: injected activity in Intestine): 1.4 ± 0.2 %ID/g | tissue uptake at 1 h ([1]; CD1, intestine, 140 ug/mouse, 140 μg/mouse, 1 hour, read-out: injected activity in Intestine): 23 ± 7.9 %ID/g | tissue uptake at 2 min ([1]; CD1, kidney, 140 ug/mouse, 140 μg/mouse, read-out: injected activity in Kidney): 23.1 ± 3.4 %ID/g | tissue uptake at 1 h ([1]; CD1, kidney, 140 ug/mouse, 140 μg/mouse, 1 hour, read-out: injected activity in Kidney): 3.5 ± 0.7 %ID/g | tissue uptake at 2 min ([1]; CD1, liver, 140 ug/mouse, 140 μg/mouse, read-out: injected activity in Liver): 18.8 ± 6.1 %ID/g | tissue uptake at 1 h ([1]; CD1, liver, 140 ug/mouse, 140 μg/mouse, 1 hour, read-out: injected activity in Liver): 2.3 ± 0.2 %ID/g | tissue uptake at 2 min ([1]; CD1, lung, 140 ug/mouse, 140 μg/mouse, read-out: injected activity in Lung): 4.48 ± 0.01 %ID/g | tissue uptake at 1 h ([1]; CD1, lung, 140 ug/mouse, 140 μg/mouse, 1 hour, read-out: injected activity in Lung): 0.31 ± 0.03 %ID/g | tissue uptake at 2 min ([1]; CD1, muscle, 140 ug/mouse, 140 μg/mouse, read-out: injected activity in Muscle): 1.4 ± 0.2 %ID/g | tissue uptake at 1 h ([1]; CD1, muscle, 140 ug/mouse, 140 μg/mouse, 1 hour, read-out: injected activity in Muscle): 0.2 ± 0.1 %ID/g | tissue uptake at 2 min ([1]; CD1, spleen, 140 ug/mouse, 140 μg/mouse, read-out: injected activity in Spleen): 1.6 ± 0.4 %ID/g | tissue uptake at 1 h ([1]; CD1, spleen, 140 ug/mouse, 140 μg/mouse, 1 hour, read-out: injected activity in Spleen): 0.81 ± 0.01 %ID/g | tissue uptake at 2 min ([1]; CD1, stomach, 140 ug/mouse, 140 μg/mouse, read-out: injected activity in Stomach): 1.1 ± 0.2 %ID/g | tissue uptake at 1 h ([1]; CD1, stomach, 140 ug/mouse, 140 μg/mouse, 1 hour, read-out: injected activity in Stomach): 5.2 ± 0.7 %ID/g | tissue uptake at 5 min ([1]; mouse, blood, 10 ug, CD1 mice, 5 min, 10 μg, read-out: injected activity in Blood): 4.7 ± 0.6 %ID/g | tissue uptake at 1 h ([1]; mouse, blood, 10 ug, CD1 mice, 1 hour, 10 μg, read-out: injected activity in Blood): 1.2 ± 0.4 %ID/g | tissue uptake at 5 min ([1]; mouse, bone, 10 ug, CD1 mice, 5 min, 10 μg, read-out: injected activity in Bone): 1.2 ± 0.1 %ID/g | tissue uptake at 1 h ([1]; mouse, bone, 10 ug, CD1 mice, 1 hour, 10 μg, read-out: injected activity in Bone): 0.26 ± 0.05 %ID/g | tissue uptake at 5 min ([1]; mouse, brain, 10 ug, CD1 mice, 5 min, 10 μg, read-out: injected activity in Brain): 0.15 ± 0.02 %ID/g | tissue uptake at 1 h ([1]; mouse, brain, 10 ug, CD1 mice, 1 hour, 10 μg, read-out: injected activity in Brain): 0.04 ± 0.01 %ID/g | tissue uptake at 5 min ([1]; mouse, heart, 10 ug, CD1 mice, 5 min, 10 μg, read-out: injected activity in Heart): 1.5 ± 0.5 %ID/g | tissue uptake at 1 h ([1]; mouse, heart, 10 ug, CD1 mice, 1 hour, 10 μg, read-out: injected activity in Heart): 0.35 ± 0.01 %ID/g | percent of injected dose excreted at 5 min ([1]; mouse, in vivo, 10 ug, CD1 mice, 5 min, 10 μg, read-out: Excretion): 19.6 ± 0.3 %ID | percent of injected dose excreted at 1 h ([1]; mouse, in vivo, 10 ug, CD1 mice, 1 hour, 10 μg, read-out: Excretion): 10.5 ± 8.6 %ID | tissue uptake at 5 min ([1]; mouse, intestine, 10 ug, CD1 mice, 5 min, 10 μg, read-out: injected activity in Intestine): 3 ± 0.3 %ID/g | tissue uptake at 1 h ([1]; mouse, intestine, 10 ug, CD1 mice, 1 hour, 10 μg, read-out: injected activity in Intestine): 7.4 ± 0.4 %ID/g | tissue uptake at 5 min ([1]; mouse, kidney, 10 ug, CD1 mice, 5 min, 10 μg, read-out: injected activity in Kidney): 11.9 ± 3.8 %ID/g | tissue uptake at 1 h ([1]; mouse, kidney, 10 ug, CD1 mice, 1 hour, 10 μg, read-out: injected activity in Kidney): 0.4 ± 2 %ID/g | tissue uptake at 5 min ([1]; mouse, liver, 10 ug, CD1 mice, 5 min, 10 μg, read-out: injected activity in Liver): 7.6 ± 0.1 %ID/g | tissue uptake at 1 h ([1]; mouse, liver, 10 ug, CD1 mice, 1 hour, 10 μg, read-out: injected activity in Liver): 2.3 ± 0.2 %ID/g | tissue uptake at 5 min ([1]; mouse, lung, 10 ug, CD1 mice, 5 min, 10 μg, read-out: injected activity in Lung): 3.7 ± 0.2 %ID/g | tissue uptake at 1 h ([1]; mouse, lung, 10 ug, CD1 mice, 1 hour, 10 μg, read-out: injected activity in Lung): 1 ± 0.2 %ID/g | tissue uptake at 5 min ([1]; mouse, muscle, 10 ug, CD1 mice, 5 min, 10 μg, read-out: injected activity in Muscle): 1 ± 0.2 %ID/g | tissue uptake at 1 h ([1]; mouse, muscle, 10 ug, CD1 mice, 1 hour, 10 μg, read-out: injected activity in Muscle): 0.3 ± 0.1 %ID/g | tissue uptake at 5 min ([1]; mouse, pancreas, 10 ug, CD1 mice, 5 min, 10 μg, read-out: injected activity in Pancreas): 1.1 ± 0.1 %ID/g | tissue uptake at 1 h ([1]; mouse, pancreas, 10 ug, CD1 mice, 1 hour, 10 μg, read-out: injected activity in Pancreas): 0.5 ± 0.2 %ID/g | tissue uptake at 5 min ([1]; mouse, spleen, 10 ug, CD1 mice, 5 min, 10 μg, read-out: injected activity in Spleen): 1.5 ± 0.2 %ID/g | tissue uptake at 1 h ([1]; mouse, spleen, 10 ug, CD1 mice, 1 hour, 10 μg, read-out: injected activity in Spleen): 0.81 ± 0.01 %ID/g | tissue uptake at 5 min ([1]; mouse, stomach, 10 ug, CD1 mice, 5 min, 10 μg, read-out: injected activity in Stomach): 0.17 ± 0.02 %ID/g | tissue uptake at 1 h ([1]; mouse, stomach, 10 ug, CD1 mice, 1 hour, 10 μg, read-out: injected activity in Stomach): 0.4 ± 0.2 %ID/g | log Po/w of radiopeptides [2]: 0.11 ± 0.06
